Measurements taken from patent publication US6680318B2, “Piperazinomethylbenzamides as delta-opioid receptor agonists” (AstraZeneca AB, priority 1999, dated 2004).
Where a name gives a salt, the structure may show the parent alone. Read-outs that look alike come from different tables or passages of the source.

Assays:
Rat Brain = Rat Brain (Rattus norvegicus, UniProt P33533); assay: Rat Brain agonist activity (EC50, % EMAX); format: biochemical
HDelta = target: T1, HDelta (Homo sapiens, UniProt P41143); assay: HDelta agonist activity (EC50, % EMAX); format: biochemical
T1 construct: expressed in transfected cells; host or cells: human 293S cells (geneticin-selected)

Mouse Brain = target: T2, Mouse Brain (Mus musculus, UniProt P32300); assay: Mouse Brain agonist activity (EC50, % EMAX); format: biochemical
T2 construct: from tissue; host or cells: mouse brain

[1] = MLM metabolic stability (% remaining); format: in vitro ADME, mouse
[2] = target: T3, cloned human δ receptors (HDelta) (Homo sapiens, UniProt P41143); assay: Binding assay on membranes of 293S cells expressing cloned human δ receptor (HDelta)
T3 construct: expressed in transfected cells; host or cells: human 293S cells (geneticin-selected)

[3] = RLM metabolic stability (% remaining); format: in vitro ADME, rat
[4] = 10000 (concentration, unit not given)
[5] = 100000 (concentration, unit not given)

T1 sequence (P41143 whole entry): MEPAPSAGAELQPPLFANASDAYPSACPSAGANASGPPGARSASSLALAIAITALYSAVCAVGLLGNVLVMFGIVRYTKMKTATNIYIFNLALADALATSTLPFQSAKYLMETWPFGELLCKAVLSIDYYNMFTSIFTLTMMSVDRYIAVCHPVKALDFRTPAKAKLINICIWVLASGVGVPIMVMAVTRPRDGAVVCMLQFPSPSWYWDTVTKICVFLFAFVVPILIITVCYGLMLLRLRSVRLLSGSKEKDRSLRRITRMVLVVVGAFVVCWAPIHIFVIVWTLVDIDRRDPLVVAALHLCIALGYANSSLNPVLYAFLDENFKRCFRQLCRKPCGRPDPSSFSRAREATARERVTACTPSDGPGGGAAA
T2 sequence (P32300 whole entry): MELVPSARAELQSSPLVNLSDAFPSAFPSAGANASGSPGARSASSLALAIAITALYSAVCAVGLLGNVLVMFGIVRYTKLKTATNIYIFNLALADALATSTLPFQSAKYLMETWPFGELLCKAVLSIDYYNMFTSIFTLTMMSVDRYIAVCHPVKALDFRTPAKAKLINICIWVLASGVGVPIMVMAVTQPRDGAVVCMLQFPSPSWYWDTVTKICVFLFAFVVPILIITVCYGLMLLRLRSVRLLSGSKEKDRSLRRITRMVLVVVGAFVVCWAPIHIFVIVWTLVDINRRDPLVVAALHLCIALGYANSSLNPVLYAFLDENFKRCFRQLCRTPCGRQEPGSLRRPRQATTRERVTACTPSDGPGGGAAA
Sequence of Rat Brain (P33533 whole entry): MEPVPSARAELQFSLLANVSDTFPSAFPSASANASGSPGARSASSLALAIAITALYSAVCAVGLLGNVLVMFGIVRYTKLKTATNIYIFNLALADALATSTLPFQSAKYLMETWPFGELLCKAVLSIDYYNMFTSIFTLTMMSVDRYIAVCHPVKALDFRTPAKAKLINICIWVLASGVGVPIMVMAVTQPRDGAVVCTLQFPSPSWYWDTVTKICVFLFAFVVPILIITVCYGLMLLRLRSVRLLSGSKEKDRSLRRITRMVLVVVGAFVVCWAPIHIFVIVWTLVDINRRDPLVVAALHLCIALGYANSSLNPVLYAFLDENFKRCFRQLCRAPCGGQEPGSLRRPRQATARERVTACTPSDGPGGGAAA
T3 sequence (P41143 whole entry): as the sequence (P41143 whole entry) above

In the case of `CCN(CC)C(=O)c1ccc(C(c2cccc3c2OC(C)(C)C3)N2CCN(Cc3cccnc3)CC2)cc1` (stereo not shown) [Example 3, 4-{(2,2-dimethyl-2,3-dihydro-1-benzofuran-7-yl)[4-(3-pyridinylmethyl)-1-piperazinyl]methyl}-N,N-diethylbenzamide Dihydrochloride], the Emax (Rat Brain) is reported as 93%, the Emax (HDelta) is reported as 103% and the EC50 (HDelta; read-out: HDelta EC50) is reported as 19.5 nM.

`CCN(CC)C(=O)c1ccc(C(c2cccc3c2OC(C)(C)C3)N2CCN(Cc3ccccn3)CC2)cc1` (stereo not shown) [Example 4, 4-{(2,2-dimethyl-2,3-dihydro-1-benzofuran-7-yl)[4-(2-pyridinylmethyl)-1-piperazinyl]methyl}-N,N-diethylbenzamide Ditrifuroacetae] gave an Emax (Rat Brain) of 118%, an EC50 (HDelta) of 7.38 nM and an Emax (HDelta) of 104%. For the same molecule, the EC50 (Mouse Brain) was 144 nM, the Emax (Mouse Brain) was 118% and the “MLM 10000 % rem.” value [1, 4] was 44.5%. The “MLM 100000 % rem.” value [1, 5] was 93%, the IC50 [2] was 3.26 nM and the “RLM 10000 % rem.” value [3, 4] was 42.5%. For the same molecule, the “RLM 100000 % rem.” value [3, 5] was 90.5%.
